Measurements reported in paper PMC7738871, “Covalent modification of Keap1 at Cys77 and Cys434 by pubescenoside a suppresses oxidative stress-induced NLRP3 inflammasome activation in myocardial ischemia-reperfusion injury” (Theranostics, 2021).
“Also recorded” adds a separate entry of the source.

Assays:
[1] = tested on: T1, interaction between Keap1 and Nrf2; experiment: Co-IP of Keap1 and Nrf2 in 293T cells; format: cell-based, human
T1 construct: expressed in transfected cells; host or cells: 293T
Description: Figure 6 PBA suppresses Keap1-mediated ubiquitination of Nrf2 by disrupting the interaction between Cul3 and Keap1. (A and B) PBA suppressed Nrf2 ubiquitination in a Keap1-Cys77 and C434-dependent manner. First, 293T cells were transfected with WT-Keap1 or C77S and C434S-Keap1, Myc-Nrf2, and Ub plasmids for 24 h and treated with 30 μM PBA. The cell lysates were immunoprecipitated using anti-Myc beads, and the ubiquitination level was evaluated using the anti-Ub antibody. (C and D) PBA induced the dissociation of the Nrf2-Keap1 complex. Then, 293T cells were cotransfected with WT-Keap1 and Flag-Nrf2 plasmids for 24 h and treated with 30 μM PBA for 12 h. The cell lysates were immunoprecipitated with the anti-Flag antibody, and the level of Nrf2 was assessed using the anti-Nrf2 antibody. (E and F) PBA disrupted the interaction between Cul3 and Keap1. The 293T cells were transfected with the WT-Keap1 or C77S-C434S-Keap1 plasmids for 24 h and treated with 30 μM PBA for 12 h. The cell lysates were immunoprecipitated with the anti-Flag antibody, and the level of Cul3 was measured using the anti-Cul3 antibody. #p < 0.05, ##p < 0.01, ###p < 0.001, the control vs DMSO; *p < 0.05,**p < 0.01, ***p < 0.001, PBA or tBHQ vs DMSO. […] Primary mouse cardiomyocytes were transfected with mouse WT-Keap1 or C77S and C434S-Keap1 mutant vectors. After 24 h, the cells were treated with the indicated doses of PBA and subjected to OGD conditions as described in the Method section for 3 h and under normal conditions for another 18 h. Cell viability was measured by MTT assays. #p < 0.05, ###p < 0.001, the control vs OGD/R; **p < 0.01, ***p < 0.001, OGD/R+PBA vs OGD/R.
To investigate the effect of PBA on the interaction of Keap1 and Nrf2, we transfected 293T cells with Flag-Keap1 and Myc-Nrf2 plasmids, and treated them with 30 μM PBA for 24 h. The protein expression of Nrf2 was measured by western blotting analysis followed by immunoprecipitation with Flag beads.

Keap1 C38S = target: T2, Keap1 C38S (Homo sapiens, UniProt Q14145, C38S); experiment: ITC titration of PBA with Keap1-C38S; format: binding; conditions: 25 ℃
T2 construct: His (N); made in house; host or cells: E. coli BL21 (DE3)
T2 sequence (Q14145 whole entry C38S): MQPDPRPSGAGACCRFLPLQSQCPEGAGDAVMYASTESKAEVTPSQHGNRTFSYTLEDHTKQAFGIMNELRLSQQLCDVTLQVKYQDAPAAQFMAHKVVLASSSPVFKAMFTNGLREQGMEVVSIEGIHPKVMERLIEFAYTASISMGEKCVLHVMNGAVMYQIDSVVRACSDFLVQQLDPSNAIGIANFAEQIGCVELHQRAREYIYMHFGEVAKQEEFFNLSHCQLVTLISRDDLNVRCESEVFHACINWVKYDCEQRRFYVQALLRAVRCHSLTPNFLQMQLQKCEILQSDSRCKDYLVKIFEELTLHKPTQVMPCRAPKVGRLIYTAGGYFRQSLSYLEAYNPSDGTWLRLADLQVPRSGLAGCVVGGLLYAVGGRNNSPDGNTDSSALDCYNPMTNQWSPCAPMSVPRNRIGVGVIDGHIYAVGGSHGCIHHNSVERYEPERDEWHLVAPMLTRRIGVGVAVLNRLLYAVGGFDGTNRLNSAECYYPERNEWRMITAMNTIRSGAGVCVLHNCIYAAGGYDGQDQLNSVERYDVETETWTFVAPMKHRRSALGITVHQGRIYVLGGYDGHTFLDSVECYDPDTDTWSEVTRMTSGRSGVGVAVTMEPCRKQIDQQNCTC
Description: The Keap1 was amplified by PCR using a human cDNA library, and was subcloned into the vector pET28-TEV, which contained one tobacco etch virus (TEV) protease cleavage site at the upstream multiple cloning site. The protein was expressed in E. coli BL21 (DE3) cells and incubated at 37 °C until the OD600 value reached 0.6, using 0.2 mM isopropyl β-D-1-thiogalactopyranoside (IPTG) overnight induction at 18 °C. The cells were isolated by centrifugation, resuspended in ice-cold lysis buffer and lysed by cryogenic overpressure cell breaker at 1,200 psi. The lysates were centrifuged for 60 min at 14,000 rpm to obtain the supernatant. Gravity flow purification of Keap1 protein was obtained at room temperature using 1 mL of Ni-NTA and eluted in buffer containing 250 mM imidazole, followed by 1 mL of HiTrap QHP for the second step purification. The final protein was purified and validated by Superdex 200 10/300GL resin.
The mutant plasmid DNA was obtained by PCR. The PCR products were cleaved by DpnI restriction enzymes. The restriction endonuclease-cleaved mixture was subsequently transformed into E. coli DH5α. Colonies were evaluated by colony PCR and sequenced. The mutant plasmid was transformed into E. coli BL21 (DE3) after successful sequencing. The steps for expression and purification of all recombinants were described above.
Isothermal calorimetry (ITC) titration experiments were performed at 25 °C. WT Keap1, Keap1 mutants and PBA were dissolved in binding buffer (40 mM Tris-HCl pH 8.0, 250 mM NaCl). In a typical experiment, 60 μL of PBA (1 mM) was injected 19 times at 2-min intervals from a stirring syringe into the sample cell containing 300 μL of WT protein or mutants (30 μM). The first injection was 0.4 μL of PBA, and the subsequent 18 injections were 2 μL each time. The site-binding models were determined by using MicroCal Origin software.

ROS in H9c2 cells = experiment: Intracellular ROS (DCFH-DA), OGD/R H9c2; format: cell-based, rat
Description: The fluorescent probe DCFH-DA was used to measure intracellular ROS levels. RAW264.7 cells were treated with 100 μg/mL LPS plus ATP as mentioned above. H9c2 cells underwent OGD/R. After the appropriate treatment, the cells were incubated with DCFH-DA at a concentration of 10 μM for 30 min. The cells were washed with PBS three times. A fluorescence microscope and microplate reader were used to measure the level of DCFH-DA fluorescence at the excitation wavelength of 488 nm and the emission wavelength of 525 nm.

OGD/R-induced H9c2 cells = experiment: OGD/R-induced injury, MTT viability, H9c2; format: cell-based, rat; conditions: H9c2, 10 and 30 μM, OGD 6 h, reperfusion 18 h
Description: For OGD/R treatment, H9c2 cells were washed twice with phosphate buffered saline (PBS). The medium was changed to glucose and serum free DMEM, and H9c2 cells were incubated in an incubator with 95% N2 and 5% CO2 at 37 °C. After 6 h, the medium was replaced with DMEM containing 10% FBS and 1% PS. Then H9c2 cells were returned to a normal incubator with 5% CO2 balanced with air at 37 °C for the indicated time.
Cell viability was determined by MTT assays. PBA was prepared to a stock solution dissolved in dimethyl sulfoxide (DMSO). RAW264.7, H9c2 cells, primary mouse cardiomyocytes were treated with different doses of PBA, and DMSO only as control for 48 h for the toxicity. In addition, H9c2 cells or primary mouse cardiomyocytes were treated with the indicated doses of PBA, diazoxide as positive control, DMSO only as control, then cultured with or without OGD/R treatment. At the end of the experiments, MTT was added into each well at the concentration of 0.5 mg/ml, and incubated at 37 °C for 4 h. After removal of the supernatant, 150 μL of DMSO was added to solubilize the formazan products. And the solution was measured at the absorbance of 490 nm by a spectrophotometer (Thermo Fisher Scientific, MA, USA). The results of the MTT assay in all groups were normalized to the control group with DMSO only treatment.

Kd (Keap1 C38S): 8.59 µM | T△S (Keap1 C38S): 2.32 ± 0.00 kcal/mol | △H (Keap1 C38S): -4.59 ± 0.199 kcal/mol
SMILES: C=C(COC(=O)C=Cc1ccc(O)c(O)c1)C(O)COC1OC(CO)C(O)C(O)C1O (stereo not shown) [PBA, pubescenoside A]
Keap1-Nrf2 complex with mutant Keap1 (Co-IP) ([1]; Cys77S and Cys434S-Keap1 mutant vectors): unable to block | interaction between Keap1 and Nrf2 (Co-IP) ([1]; WT-Keap1, 30 μM PBA): significantly disturbed; also recorded: disrupted | OGD/R-induced ROS (ROS in H9c2 cells): significantly suppress | protection against OGD/R induced injury (cell viability, MTT) (OGD/R-induced H9c2 cells): protected
